This passage reports IC50 results from patent US20240383915A1, “OXAZEPINE COMPOUNDS AND USES THEREOF IN THE TREATMENT OF CANCER” (Genentech, Inc., priority 2021, published 2024).

For one test, the target named is KRas (Homo sapiens (Human), UniProt P01116). In words: KRas GDP HTRF (BODIPY-GDP exchange TR-FRET). Format: biochemical. In short, it runs like this:
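Inhibition of SOS1-mediated exchange of BODIPY-GDP on KRAS G12D, started with 3 nM recombinant human SOS1 and 300 nM BODIPY-GDP and read after 60 min. TR-FRET excitation 337 nm, ratio 520/490 nm ×10,000. IC50 from 4-parameter Hill fit of normalized data.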

A further test concerns the target KRas(G12V) (Homo sapiens (Human), UniProt P01116, G12V). In words: KRas(G12V) GDP HTRF (BODIPY-GDP exchange TR-FRET). In kind it is biochemical.
In a further test the test system is PC-9 cells. Description: PC9 proliferation assay. Format: cell-based, human. Conditions: Homo sapiens, PC-9, PC9; read-out: PC9 Prolif IC50 (G12V).
Another test has as its system SW480 cells. Description: SW480 proliferation assay. In kind it is cell-based. Conditions: Homo sapiens, SW480, SW480; read-out: SW480 Prolif IC50 (G12V).

Chain of KRas(G12V) (P01116-2 other isoform, or with tags, fused parts or gaps G12V): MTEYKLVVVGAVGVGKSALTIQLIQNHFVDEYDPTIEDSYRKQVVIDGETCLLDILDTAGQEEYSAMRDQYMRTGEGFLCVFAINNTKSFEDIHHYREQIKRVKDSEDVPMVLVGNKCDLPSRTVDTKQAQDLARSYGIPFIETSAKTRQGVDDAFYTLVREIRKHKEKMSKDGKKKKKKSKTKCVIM
Chain of KRas (P01116-2 other isoform, or with tags, fused parts or gaps): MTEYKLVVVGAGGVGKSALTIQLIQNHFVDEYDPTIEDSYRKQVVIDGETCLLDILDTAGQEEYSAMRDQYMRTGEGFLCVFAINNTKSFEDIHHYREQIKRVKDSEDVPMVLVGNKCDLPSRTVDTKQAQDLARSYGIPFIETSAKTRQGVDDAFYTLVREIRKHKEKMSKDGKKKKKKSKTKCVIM

By IC50 is commonly meant the point on the concentration scale where inhibition reaches its midpoint. On to `Cc1cc(N)nc(-c2c(Cl)c3c4c(nc(OC[C@H]5C[C@@H]6C[N@@]5CCO6)nc4c2F)N([C@H](C)c2cccnc2N)CCO3)c1C(F)(F)F` (atropisomer, axis not shown) [Example 92b, 6-((R)-2-(((1R,5R,7R)-4-oxa-1-azabicyclo[3.2.1]octan-7-yl)methoxy)-4-((R)-1-(2-aminopyridin-3-yl)ethyl)-8-chloro-10-fluoro-5,6-dihydro-4H-[1,4]oxazepino[5,6,7-de]quinazolin-9-yl)-4-methyl-5-(trifluoromethyl)pyridin-2-amine], for which the IC50 against KRas worked out at 1.89 nM; at KRas(G12V), 0.31 nM; in the test on PC-9 cells, 6000 nM; in the test on SW480 cells it was 700 nM.

`Cc1cc(N)nc(-c2c(Cl)c3c4c(nc(OC[C@@H]5C[C@@H](F)CN5C)nc4c2F)N([C@H](C)c2cccnc2N)CCO3)c1C(F)(F)F` (atropisomer, axis not shown) [Example 106, 6-((R)-4-((R)-1-(2-aminopyridin-3-yl)ethyl)-8-chloro-10-fluoro-2-(((2S,4R)-4-fluoro-1-methylpyrrolidin-2-yl)methoxy)-5,6-dihydro-4H-[1,4]oxazepino[5,6,7-de]quinazolin-9-yl)-4-methyl-5-(trifluoromethyl)pyridin-2-amine]: the IC50 on KRas is 0.14 nM; at KRas(G12V) it was 0.13 nM; with PC-9 cells, 970 nM; in the test on SW480 cells it was 9.4 nM.

Regarding `Cc1cc(N)nc(-c2c(Cl)c3c4c(nc(OC[C@@H]5CCN5CC(F)F)nc4c2F)N([C@H](C)c2cccnc2N)CCO3)c1C(F)(F)F` (atropisomer, axis not shown) [Example 109, 6-((R)-4-((R)-1-(2-aminopyridin-3-yl)ethyl)-8-chloro-2-(((S)-1-(2,2-difluoroethyl)azetidin-2-yl)methoxy)-10-fluoro-5,6-dihydro-4H-[1,4]oxazepino[5,6,7-de]quinazolin-9-yl)-4-methyl-5-(trifluoromethyl)pyridin-2-amine], the IC50 was 0.222 nM at KRas, 0.18 nM at KRas(G12V), 13000 nM in the test with PC-9 cells and 2.8 nM in the test on SW480 cells.

As to `Cc1cc(N)nc(-c2c(Cl)c3c4c(nc(OC[C@@]56CCCN5C[C@]5(CC5(F)F)C6)nc4c2F)N([C@H](C)c2cccnc2N)CCO3)c1C(F)(F)F` (atropisomer, axis not shown) [Example 111a, 6-((R)-4-((R)-1-(2-aminopyridin-3-yl)ethyl)-8-chloro-2-(((1R,7a′S)-2,2-difluorodihydro-1′H,3′H-spiro[cyclopropane-1,2′-pyrrolizin]-7a′(5′H)-yl)methoxy)-10-fluoro-5,6-dihydro-4H-[1,4]oxazepino[5,6,7-de]quinazolin-9-yl)-4-methyl-5-(trifluoromethyl)pyridin-2-amine], the IC50 on KRas was 0.85 nM; against KRas(G12V), 0.36 nM; with PC-9 cells it was 7400 nM; in the test on SW480 cells, 1.8 nM.

As to `Cc1cc(N)nc(-c2c(Cl)c3c4c(nc(OC[C@@H]5CC(F)(F)CN5C)nc4c2F)N([C@H](C)c2cccnc2N)CCO3)c1C(F)(F)F` (atropisomer, axis not shown) [Example 112, 6-((R)-4-((R)-1-(2-aminopyridin-3-yl)ethyl)-8-chloro-2-(((S)-4,4-difluoro-1-methylpyrrolidin-2-yl)methoxy)-10-fluoro-5,6-dihydro-4H-[1,4]oxazepino[5,6,7-de]quinazolin-9-yl)-4-methyl-5-(trifluoromethyl)pyridin-2-amine], the IC50 was determined as 0.32 nM against KRas, 0.2 nM against KRas(G12V), 4300 nM in the test on PC-9 cells and 1.8 nM with SW480 cells.
